# Target: T1, prolyl endopeptidase (Sus scrofa, UniProt P23687)
# T1 construct: swine kidney-derived prolyl endopeptidase; from tissue; host or cells: swine kidney
# Assay: Enzyme inhibitory action on swine kidney-derived prolyl endopeptidase (Z-Gly-Pro-β-naphthylamide substrate)
# Format: biochemical
# Conditions: in vitro, qualitative statement
# Experimental: Using 0.1 mM of benzyolxycarbonylglycylproline-β-naphthylamide as substrate and swine kidney-derived prolyl endopeptidase as enzyme, the enzyme was acted on the substrate at 37° C. for 30 minutes in 0.025 M Tris(hydroxymethyl)methane amine-hydrochloric acid (pH 7.5) solution. Fast Garnet was added to form a color and absorbance was measured at 525 nm. The inhibitory activity is expressed in terms of concentration required for 50% inhibition (IC50).
# T1 sequence (P23687 whole entry): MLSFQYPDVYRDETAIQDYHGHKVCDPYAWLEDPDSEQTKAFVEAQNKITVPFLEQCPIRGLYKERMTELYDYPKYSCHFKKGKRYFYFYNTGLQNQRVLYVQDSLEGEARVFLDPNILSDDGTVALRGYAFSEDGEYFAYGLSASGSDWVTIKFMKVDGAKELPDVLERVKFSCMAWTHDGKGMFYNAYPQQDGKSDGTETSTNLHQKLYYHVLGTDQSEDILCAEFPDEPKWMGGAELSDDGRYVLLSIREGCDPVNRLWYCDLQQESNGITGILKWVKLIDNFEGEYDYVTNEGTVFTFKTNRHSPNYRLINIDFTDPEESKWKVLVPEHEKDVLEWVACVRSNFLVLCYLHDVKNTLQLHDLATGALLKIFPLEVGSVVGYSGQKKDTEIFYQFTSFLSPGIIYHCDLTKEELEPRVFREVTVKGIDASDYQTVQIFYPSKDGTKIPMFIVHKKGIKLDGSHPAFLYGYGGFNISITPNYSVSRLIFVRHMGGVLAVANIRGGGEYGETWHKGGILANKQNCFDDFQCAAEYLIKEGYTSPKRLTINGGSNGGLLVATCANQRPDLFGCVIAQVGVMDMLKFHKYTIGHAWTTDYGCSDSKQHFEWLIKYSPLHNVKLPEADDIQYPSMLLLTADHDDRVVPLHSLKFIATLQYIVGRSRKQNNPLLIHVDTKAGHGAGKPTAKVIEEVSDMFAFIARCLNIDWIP
row,Compound,prolyl endopeptidase inhibition activity (in words)
1,"O=C(NC1CCCC1)C(=O)C1CCCN1C(=O)C(Cc1ccccc1)NC(=O)c1cccc(Oc2ccccc2)c1 (stereo not shown) [Example 13, N-Cyclopentyl-2-oxo-2-[2-(1-(N-(3-phenoxybenzoyl)phenylalanyl)pyrrolidinyl)]acetamide]",potent inhibition activity on almost the same level
2,"O=C(NC1CCCCC1)C(=O)C1CCCN1C(=O)C(Cc1ccccc1)NC(=O)c1cccc(Oc2ccccc2)c1 (stereo not shown) [Example 28, N-Cyclohexyl-2-oxo-2-[2-(1-(N-(3-phenoxybenzoyl)phenylalanyl)pyrrolidinyl)]acetamide]",potent inhibition activity on almost the same level
3,"O=C(NC1CCCCCC1)C(=O)C1CCCN1C(=O)C(Cc1ccccc1)NC(=O)c1cccc(Oc2ccccc2)c1 (stereo not shown) [Example 41, N-Cycloheptyl-2-oxo-2-[2-(1-(N-(3-phenoxybenzoyl)-phenylalanyl)pyrrolidinyl)]acetamide]",potent inhibition activity on almost the same level
4,"O=C(NC1CC1)C(=O)C1CCCN1C(=O)C(Cc1ccccc1)NC(=O)c1cccc(Oc2ccccc2)c1 (stereo not shown) [Example 108, N-Cyclopropyl-2-oxo-2-[2-(1-(N-(3-phenoxybenzoyl)phenylalanyl)pyrrolidinyl)]acetamide]",potent inhibition activity on almost the same level
5,"O=C(NC1CCCCCCC1)C(=O)C1CCCN1C(=O)C(Cc1ccccc1)NC(=O)c1cccc(Oc2ccccc2)c1 (stereo not shown) [Example 113, N-Cyclooctyl-2-oxo-2-[2-(1-(N-(3-phenoxybenzoyl)phenylalanyl)pyrrolidinyl)]acetamide]",potent inhibition activity on almost the same level

# Same assay, conditions: swine kidney prolyl endopeptidase, 0.1 mM substrate, 37° C., 30 minutes, pH 7.5
row,Compound,IC50 [nM]
1,"CC(C)C(NC(=O)OCc1ccccc1)C(=O)N1CCCC1C(=O)C(=O)NC1CCCCC1 (stereo not shown) [Example 4, N-cyclohexyl-2-oxo-2-[2-(1-(N-benzyloxycarbonylvalyl)pyrrolidinyl)]acetamide]",1.09
2,"CC(C)C(NC(=O)c1cccc(Oc2ccccc2)c1)C(=O)N1CCCC1C(=O)C(=O)NC1CCCCC1 (stereo not shown) [Example 7, N-cyclohexyl-2-oxo-2-[2-(1-(N-(3-phenoxybenzoyl)valyl)pyrrolidinyl)]acetamide]",0.962
3,"CC(C)C(NC(=O)c1ccc2ccccc2n1)C(=O)N1CCCC1C(=O)C(=O)NC1CCCCC1 (stereo not shown) [Example 9, N-Cyclohexyl-2-oxo-2-[2-(1-(N-(2-quinolinecarbonyl)valyl)pyrrolidinyl)]acetamide]",1.34
4,"O=C(NC1CCCC1)C(=O)C1CCCN1C(=O)C(Cc1ccccc1)NC(=O)c1cccc(Oc2ccccc2)c1 (stereo not shown) [Example 13, N-Cyclopentyl-2-oxo-2-[2-(1-(N-(3-phenoxybenzoyl)phenylalanyl)pyrrolidinyl)]acetamide]",1.48
5,"CC(C)(C)OC(=O)NC(Cc1ccccc1)C(=O)N1CCCC1C(=O)C(=O)NC1CCCCC1 (stereo not shown) [Example 15, N-Cyclohexyl-2-oxo-2-[2-(1-(N-t-butoxycarbonylphenylalanyl)pyrrolidinyl)]acetamide]",3.18
6,"O=C(NC1CCCCC1)C(=O)C1CCCN1C(=O)C(Cc1ccccc1)NC(=O)c1cccs1 (stereo not shown) [Example 18, N-Cyclohexyl-2-oxo-2-[2-(1-(N-(2-thenoyl)phenylalanyl)pyrrolidinyl)]acetamide]",2.28
7,"O=C(COc1ccccc1)NC(Cc1ccccc1)C(=O)N1CCCC1C(=O)C(=O)NC1CCCCC1 (stereo not shown) [Example 20, N-Cyclohexyl-2-oxo-2-[2-(1-(N-phenoxyacetylphenylalanyl)pyrrolidinyl)]acetamide]",1.58
8,"O=C(NC1CCCCC1)C(=O)C1CCCN1C(=O)C(Cc1ccccc1)NC(=O)c1ccc2ccccc2c1 (stereo not shown) [Example 22, N-Cyclohexyl-2-oxo-2-[2-(1-(N-(2-naphthoyl)phenylalanyl)pyrrolidinyl)]acetamide]",3.23
9,"O=C(Cc1ccccn1)NC(Cc1ccccc1)C(=O)N1CCCC1C(=O)C(=O)NC1CCCCC1 (stereo not shown) [Example 24, N-Cyclohexyl-2-oxo-2-[2-(1-(N-(2-pyridyl)acetylphenylalanyl)pyrrolidinyl)]acetamide]",2.24
10,"O=C(NC1CCCCC1)C(=O)C1CCCN1C(=O)C(Cc1ccccc1)NC(=O)c1cccc(Oc2ccccc2)c1 (stereo not shown) [Example 28, N-Cyclohexyl-2-oxo-2-[2-(1-(N-(3-phenoxybenzoyl)phenylalanyl)pyrrolidinyl)]acetamide]",1.14
11,"O=C(C=Cc1ccco1)NC(Cc1ccccc1)C(=O)N1CCCC1C(=O)C(=O)NC1CCCCC1 (stereo not shown) [Example 31, N-Cyclohexyl-2-oxo-2-[2-(1-(N-(3-(2-furyl)acryloyl)-phenylalanyl)pyrrolidinyl)]acetamide]",6.31
12,"O=C(CCC1CCCCC1)NC(Cc1ccccc1)C(=O)N1CCCC1C(=O)C(=O)NC1CCCCC1 (stereo not shown) [Example 33, N-Cyclohexyl-2-oxo-2-[2-(1-(N-(3-cyclohexylpropionyl)-phenylalanyl)pyrrolidinyl)]acetamide]",0.981
13,"O=C(NC1CCCCCC1)C(=O)C1CCCN1C(=O)C(Cc1ccccc1)NC(=O)c1cccc(Oc2ccccc2)c1 (stereo not shown) [Example 41, N-Cycloheptyl-2-oxo-2-[2-(1-(N-(3-phenoxybenzoyl)-phenylalanyl)pyrrolidinyl)]acetamide]",1.38
14,"O=C(NC1CCCCC1)C(=O)C1CCCN1C(=O)C(Cc1ccccc1)NC(=O)c1ccccc1 (stereo not shown) [Example 43, N-Cyclohexyl-2-oxo-2-[2-(1-(N-benzoylphenylalanyl)pyrrolidinyl)]acetamide]",1.89
15,"O=C(NC(Cc1ccccc1)C(=O)N1CCCC1C(=O)C(=O)NC1CCCCC1)OCc1ccccc1 (stereo not shown) [Example 45, N-Cyclohexyl-2-oxo-2-[2-(1-(N-benzyloxycarbonylphenylalanyl)pyrrolidinyl)]acetamide]",2.37
16,"O=C(CSc1ccccc1)NC(Cc1ccccc1)C(=O)N1CCCC1C(=O)C(=O)NC1CCCCC1 (stereo not shown) [Example 47, N-Cyclohexyl-2-oxo-2-[2-(1-(N-(phenylthioacetyl)-phenylalanyl)pyrrolidinyl)]acetamide]",1.53
17,"O=C(NC1CCCCC1)C(=O)C1CCCN1C(=O)C(Cc1ccccc1)NC(=O)c1ccncc1 (stereo not shown) [Example 49, N-Cyclohexyl-2-oxo-2-[2-(1-(N-(isonicotinonyl)-phenylalanyl)pyrrolidinyl)]acetamide]",6.5
18,"O=C(CSc1ccncc1)NC(Cc1ccccc1)C(=O)N1CCCC1C(=O)C(=O)NC1CCCCC1 (stereo not shown) [Example 51, N-Cyclohexyl-2-oxo-2-[2-(1-(N-(4-pyridylthioacetyl)-phenylalanyl)pyrrolidinyl)]acetamide]",2.68
19,"O=C(NC1CCCCC1)C(=O)C1CCCN1C(=O)C(Cc1ccccc1)NC(=O)c1cccnc1 (stereo not shown) [Example 53, N-Cyclohexyl-2-oxo-2-[2-(1-(N-(nicotinonyl)phenylalanyl)pyrrolidinyl)]acetamide]",4.2

row,Compound,IC50 [nM]
1,"O=C(NC1CCCCC1)C(=O)C1CCCN1C(=O)C1CCCN1C(=O)CSc1ccncc1 (stereo not shown) [Example 55, N-Cyclohexyl-2-oxo-2-[2-(1-(N-(4-pyridylthioacetyl)prolyl)pyrrolidinyl)]acetamide]",1.69
2,"O=C(NC1CCCCC1)C(=O)C1CCCN1C(=O)[C@H](Cc1ccccc1)NC(=O)c1ccc(CN2CCOCC2)cc1 (stereo partly shown) [Example 57, N-Cyclohexyl-2-oxo-2-[2-(1-(N-(4-morpholinomethylbenzoyl)phenylalanyl)pyrrolidinyl)]acetamide]",9.4
3,"O=C(NC1CCCCC1)C(=O)C1CCCN1C(=O)CN(Cc1ccccc1)C(=O)c1ccncc1 (stereo not shown) [Example 60, N-Cyclohexyl-2-oxo-2-[2-(1-(N-isonicotinonyl-N-benzylglycyl)pyrrolidinyl)]acetamide]",8.81
4,"O=C(NC1CCCCC1)C(=O)C1CCCN1C(=O)c1ccc2ccccc2n1 (stereo not shown) [Example 66, N-Cyclohexyl-2-oxo-2-[2-(1-(2-quinolylcarbonyl)pyrrolidinyl)]acetamide]",26.4
5,"O=C(NC1CCCCC1)C(=O)C1CCCN1C(=O)C=Cc1ccccc1 (stereo not shown) [Example 68, N-Cyclohexyl-2-oxo-2-[2-(1-cinnamoylpyrrolidinyl)]acetamide]",48
6,"O=C(NC1CCCCC1)C(=O)C1CCCN1C(=O)C=Cc1ccc(Cl)cc1 (stereo not shown) [Example 70, N-Cyclohexyl-2-oxo-2-[2-(1-(3-(4-chlorophenyl)acryloyl)pyrrolidinyl)]acetamide]",111
7,"O=C(NC1CCCCC1)C(=O)C1CCCN1C(=O)C=Cc1cccnc1 (stereo not shown) [Example 72, N-Cyclohexyl-2-oxo-2-[2-(1-(3-(3-pyridyl)acryloyl)pyrrolidinyl)]acetamide]",239
8,"O=C(NC1CCCCC1)C(=O)C1CCCN1C(=O)c1ccccn1 (stereo not shown) [Example 74, N-Cyclohexyl-2-oxo-2-[2-(1-(2-pyridylcarbonyl)pyrrolidinyl)]acetamide]",97.1
9,"O=C(NC1CCCCC1)C(=O)C1CCCN1C(=O)c1cccc(Oc2ccccc2)c1 (stereo not shown) [Example 76, N-Cyclohexyl-2-oxo-2-[2-(1-(3-phenoxybenzoyl)pyrrolidinyl)]acetamide]",13.8
10,"O=C(NC1CCCCCC1)C(=O)C1CCCN1C(=O)c1ccc2ccccc2c1 (stereo not shown) [Example 78, N-Cycloheptyl-2-oxo-2-[2-(1-(2-naphthoyl)pyrrolidinyl)]acetamide]",23.4
11,"O=C(NC1CCCCC1)C(=O)C1CCCN1C(=O)c1ccc(CN2CCCCC2)cc1 (stereo not shown) [Example 86, N-Cyclohexyl-2-oxo-2-[2-(1-(4-piperidinomethylbenzoyl)pyrrolidinyl)]acetamide]",82.2
12,O=C(NC1CCCCC1)C(=O)C1CCCN1C(=O)c1ccc(Cn2ccnc2)cc1 (stereo not shown) [Example 88],132
13,"O=C(NCc1nc2ccccc2[nH]1)C(=O)C1CCCN1C(=O)c1ccc(Cl)cc1 (stereo not shown) [Example 93, N-(2-Benzimidazolylmethyl)-2-oxo-2-[2-(1-(4-chlorobenzoyl)pyrrolidinyl)]acetamide]",134
14,"O=C(NCCN1CCOCC1)C(=O)C1CCCN1C(=O)c1ccc(Cl)cc1 (stereo not shown) [Example 95, N-(2-Morpholinoethyl)-2-oxo-2-[2-(1-(4-chlorobenzoyl)-pyrrolidinyl)]acetamide]",168
15,"O=C(NCCc1ccccn1)C(=O)C1CCCN1C(=O)c1ccc(Cl)cc1 (stereo not shown) [Example 97, N-(2-(2-Pyridyl)ethyl)-2-oxo-2-[2-(1-(4-chlorobenzoyl)pyrrolidinyl)]acetamide]",90.7
16,"O=C(NC1CC1)C(=O)C1CCCN1C(=O)C(Cc1ccccc1)NC(=O)c1cccc(Oc2ccccc2)c1 (stereo not shown) [Example 108, N-Cyclopropyl-2-oxo-2-[2-(1-(N-(3-phenoxybenzoyl)phenylalanyl)pyrrolidinyl)]acetamide]",1.33
17,"O=C(NC1CCCCCCC1)C(=O)C1CCCN1C(=O)C(Cc1ccccc1)NC(=O)c1cccc(Oc2ccccc2)c1 (stereo not shown) [Example 113, N-Cyclooctyl-2-oxo-2-[2-(1-(N-(3-phenoxybenzoyl)phenylalanyl)pyrrolidinyl)]acetamide]",1.59
18,"O=C(NC1CCCCC1)C(=O)C1CCCN1C(=O)C(Cc1ccccc1)NC(=O)c1ccc2ccccc2n1 (stereo not shown) [Example 115, N-Cyclohexyl-2-oxo-2-[2-(1-(N-(2-quinolylcarbonyl)phenylalanyl)pyrrolidinyl)]acetamide]",2.09
19,"CC(=O)NC(Cc1ccccc1)C(=O)N1CCCC1C(=O)C(=O)NC1CCCCC1 (stereo not shown) [Example 118, N-Cyclohexyl-2-oxo-2-[2-(1-(N-acetylphenylalanyl)pyrrolidinyl)]acetamide]",2.03

# Source: US5756763A, “Pyrrolidine derivatives” (Zaidan Hojin Biseibutsu Kagaku Kenkyukai, priority 1993, dated 1998)
